Test results as given in patent US20080124338A1, “METHODS FOR TREATMENT OF INFLAMMATORY DISEASE AND CHLAMYDIA INFECTIOUS DISEASE” (The Scripps Research Institute, priority 2006, published 2008).
“Also recorded” adds a separate entry of the source. Peptide text beside a SMILES is read from it. * marks the point of attachment. Cbz = O=C(OCc1ccccc1)*

Key:
proteasomal degradation = experiment: Detection of p22 cleavage product in cells treated with MG-132; format: cell-based; conditions: Chlamydia-infected cells treated with MG-132; data not shown
Source text: The cleavage of p65 was confirmed by the detection of a 22 kDa fragment with a C-terminus specific antibody against p65 (FIG. 1C). […] The 40 kDa fragment was further characterized with MALDI proteomics. Thus, 293T cells, transfected for GST-p65 protein expression, were infected with LGV2 for 28 hr. After purification, the cleavage product was subjected to trypsin digestion followed by MALDI TOF identification. Seven proteolytic fragments were detected, which covered the N-terminal GST tag and the RHD region of p65 (supplemental data).
Western blots. Except as noted, extracts were prepared by lysis of cells with a buffer containing 143 mM NaCl, 50 mM Tris-HCl (pH 7.5), 1 mM DTT, 1% NP-40, 0.1% SDS and protease inhibitors (Roche). Soluble proteins were separated by SDS-PAGE or Tris-Glycine gels (Novex). Blots were probed with specific antibodies. Horseradish peroxidase conjugated secondary antibodies (Sigma) and ECL reagent kit (Pierce) were used for detection.

[1] = test system: Chlamydia trachomatis LGV2; experiment: p65 cleavage in Chlamydia-infected cells treated with antibiotics (immunoblotting); format: cell-based; conditions: rifampin 0.1 μg/ml, chloramphenicol 60 μg/ml, penicillin G 100 μg/ml, FIG. 1E
Experimental: A. Hela 229 cells were infected with Chlamydia trachomatis LGV2 at 1 IFU/cell for varying times, or with invasive (wt) or invasion-defective (mut) Salmonella typhimurium for 2 hr. IκBα expression and degradation were detected by immunoblotting analyses. TNFα (10 ng/ml) was used as a positive control. B. Hela 229 cells were infected with LGV2 at 1 IFU/cell for 2, 16 and 24 hr. The cytosolic (C) and nuclear (N) fractions were separated and redistribution of p65/RelA was detected by immunoblotting analysis. The expression of lamin A and β-tubulin were used as loading controls for nuclear and cytosolic fractions, respectively. C. Whole cell lysates from Chlamydia-infected cells were separated by SDS-PAGE and cleavage of p65 was detected with an N- or C-terminus specific antibody against p65. D. Selective cleavage of p65 by Chlamydia infection. The expression of NF-κB pathway signaling molecules in Chlamydia-infected and non-infected control cells was determined by immunoblotting analysis. E. Inhibition of Chlamydia growth blocks p65 cleavage. The infected cells were treated with rifampin (Rif, 0.1 μg/ml) or chloramphenicol (Chl, 60 μg/ml), reagents that inhibit Chlamydia growth by blocking transcription or translation, respectively. […] The expression of β-tubulin or Erk2/MAPK was used as loading controls. All experiments were performed at least 3 times.
Infection assays. […]

[2] = test system: p65 cleavage activity of Chlamydia; experiment: In vitro p65 cleavage assay with solubilized chlamydial EB proteins; format: biochemical; conditions: 37° C. for 60 min; inhibitor added 30 min prior to p65; EDTA 5 mM, lactacystin 10 μM; FIG. 2C
Experimental: Purified Chlamydia EB was solubilized with a buffer containing 1% NP-40. […] The graph represents the rates of p65 disappearance and p40 appearance in the same reaction. C. […] In parallel experiments, protease inhibitors were included in the in vitro p65 cleavage assay. […] Lane 4: Roche protease inhibitor cocktail at 10×; Lane 5: heat-inactivated EB; Lane 6: EDTA at 5 mM; Lane 7: Lactacystin at 10 μM; Lane 8: MG132 at 20 μM; Lane 9: TPCK at 20 μM; and Lane 10: TLCK at 20 μM. The presence of the chlamydial major outer membrane protein (MOMP) was used as a measure of EB protein input (lower panel).
In vitro p65 cleavage assays. Gradient purified chlamydial EB were solubilized with Tris-buffered saline, supplemented with 1% NP-40. The soluble proteins were collected and used for p65 cleavage assays. […] For inhibition assays, an inhibitor was added 30 min prior to the addition of p65 protein. All assays were performed at 37° C. for 60 min or as otherwise indicated.

IκBα = IκBα degradation in Hela 229 cells (immunoblotting); format: cell-based; conditions: TNFα 10 ng/ml, positive control, FIG. 1A
Source text: The host inflammatory response to bacterial infection or proinflammatory cytokine and LPS stimulation is mediated by NF-κB activity, which is regulated by the selective degradation of IκB proteins. Karin and Ben-Neriah, Annu. Rev. Immunol 18: 621, 2000; Richmond, Nat. Rev. Immunol 2: 664, 2002. To investigate whether Chlamydia targeted the NF-κB pathway to interfere with host inflammatory response, we first examined the integrity of IκBα, a regulatory molecule of NF-κB activation. To this end, monolayers of Hela 229 cells were infected with C. trachomatis LGV2 at 1 inclusion forming unit per cell (1 IFU/cell) for varying time points. Lad et al., J Immunol 174: 7186, 2005. […]
A. Hela 229 cells were infected with Chlamydia trachomatis LGV2 at 1 IFU/cell for varying times, or with invasive (wt) or invasion-defective (mut) Salmonella typhimurium for 2 hr. IκBα expression and degradation were detected by immunoblotting analyses. […] The cytosolic (C) and nuclear (N) fractions were separated and redistribution of p65/RelA was detected by immunoblotting analysis. […] Whole cell lysates from Chlamydia-infected cells were separated by SDS-PAGE and cleavage of p65 was detected with an N- or C-terminus specific antibody against p65. […] The expression of NF-κB pathway signaling molecules in Chlamydia-infected and non-infected control cells was determined by immunoblotting analysis. […]

NF-κB [3] = experiment: pIL8-luciferase reporter gene assay in 293T cells; format: cell-based, human; conditions: TNFα 10 ng/ml, FIG. 3C, 3D
Experimental: (§1) We therefore investigated whether expression of CT441 interfered with NF-κB signal transduction. To this end, 293T cells were transfected with pIL8-luciferase (Kim et al., Cancer Res 65: 8784, 2005) and a plasmid for CT441 expression. The cells were then treated with TNFα to induce luciferase expression. In parallel experiments, we also included a mouse cell line for control purposes since murine p65 is resistant to cleavage by Chlamydia infection. […] The p40 cleavage product (amino acid residues 1-351) was then investigated for its inhibitory effect on TNFα-induced NF-κB activation.
(§2) A. Putative chlamydial proteases were expressed as N-terminal HA-tagged proteins in 293T cells and screened for their ability to cleave p65. […] 441, 494, 823 and 858 represent chlamydial CT441, CT494, CT823, and CT858, respectively. […] Monolayers of 293T or NIH3T3 cells were co-transfected with pIL8-Luc (Kim et al., Cancer Res 65: 8784, 2005) and a plasmid for the expression of chlamydial protease CT441 or the p40 cleavage product of p65. pSV40-RL was included as an internal control for transfection reactions. The cells were treated with TNFα (10 ng/ml) 18 hr post transfection to induce luciferase expression. Luciferase activities were determined with a Dual-Glo reagent kit (Promega) 18 hr after TNFα treatment. The ratio of firefly and Renilla luciferase activities (FL/RL) was plotted. […]

NF-κB [4] = experiment: pIL8-luciferase reporter gene assay in NIH3T3 cells; format: cell-based, mouse; conditions: TNFα 10 ng/ml, FIG. 3C
Experimental: as §1, §2

p65 = experiment: Expression of putative chlamydial proteases in 293T cells, cleavage of endogenous p65 (Western blot); format: cell-based, human; conditions: N-terminal HA-tagged proteins expressed in 293T cells; FIG. 3A, 3B
Source text: The chlamydial genome encodes 16 proteases (Stephens et al., Science 282: 754, 1998), including four putative proteases that contain a leader sequence for periplasmic secretion and potential translocation by the chlamydial type III secretory system. The mature peptides of those putative proteases were therefore screened for their ability to cleave p65 after expression in 293T cells. […] CT441 encodes a tail-specific protease (Tsp) that is well conserved among Chlamydia species.
as §2, with “plotted. All transfections were performed in duplicate and the data are presented as means +/− error.” for “plotted.”

For `CC(C)C[C@@H](C=O)NC(=O)[C@H](CC(C)C)NC(=O)[C@H](CC(C)C)NC(=O)OCc1ccccc1` [MG-132] (Cbz-Leu-Leu-Leu-aldehyde), the “detection of p22” value (proteasomal degradation) was “Enhanced detection of p22”.

With `O=C(N[C@H](CO)[C@H](O)c1ccc([N+](=O)[O-])cc1)C(Cl)Cl` [chloramphenicol] the “Chlamydia cleavage of p65” value [1] was “blocked”.

In the case of `CC(=O)N[C@@H](CSC(=O)[C@]1([C@@H](O)C(C)C)NC(=O)[C@H](C)[C@@H]1O)C(=O)O` [lactacystin], the “p65 cleavage activity of Chlamydia (solubilized EB proteins)” value [2] is reported as “inhibited p65 cleavage activity”.

With `CO[C@H]1/C=C/O[C@@]2(C)Oc3c(C)c(O)c4c(O)c(c(/C=N/N5CCN(C)CC5)c(O)c4c3C2=O)NC(=O)/C(C)=C\C=C\[C@H](C)[C@H](O)[C@@H](C)[C@@H](O)[C@@H](C)[C@H](OC(C)=O)[C@@H]1C` [rifampin] the “Chlamydia cleavage of p65” value [1] was “blocked”.

In the case of TNFα, the IκBα degradation (IκBα) is reported as “caused IκBα degradation”.

B1: CT441: Chlamydia trachomatis tail-specific protease, SEQ ID NO:2 (protein, listed as Chlamydia trachomatis)
chain: MMRFARFCLLVLTLFPQLAFSAEPLRRQDVRKTVDKLVEHHIDTQQISPYILSRSLEDYVRSFDSHKAYLTQDEVFSHAFSEEATRPLFKQYQEDNFSSFKELDTCIQQSISRAREWRSSWLTDSIRVIQDAMSHTIEKKPSAWASSIEEVKQRQYDLLLSYASIYLEDAAKNRYQGKEHALVKLCIRQIENHENPYIGINDHGYRMSPEEEANSFHVRIIKSIAHSLDAHTAYFSQEEALSMRAQLEKGMCGIGVVLKEDIDGVVVKEVLAGGPADKTGSLRVGDIIYRVNGKNIENTPFPGVLDSLRGSPGSSVTLDIHRQNNDHVIQLRREKILLDSRRVDVSYEPYGNGIIGKITLHSFYEGENQVSSEQDLRKAIRELQEKNLLGLVLDIRENTGGFLSQAIKVSGLFLTNGVVVVSRYADGSVKRYRTISPQKFYDGPLAVLVSKSSASAAEIVAQTLQDYGVALIVGDQQTYGKGTIQHQTITGSNSQEDFFKVTVGRYYSPSGKSTQLEGVKSDIVIPSRYAEDKLGERFLEYALPADQYENVINDNLGDLDINIRPWFQKYYSPHLQKPELVWREMLPQLAHNSQERLEKNKNFEIFVQHLKKTNKQDRSFGSNDLQMEESVNIVKDMILLKSIS
For B1, the “TNFα-induced luciferase activity (NF-κB activation)” value (NF-κB [3]) was “inhibited TNFα-induced luciferase activity; also recorded: inhibited NF-κB activity”, the TNFα-induced luciferase expression (NF-κB [4]) was “showed no effect” and the “p65 cleavage after expression in 293T cells” value (p65) was “caused p65 cleavage; also recorded: resulted in selective cleavage of p65”.

B2: CT858: chlamydial protease detected during an infection but not in purified EB (protein)
chain: MKMNRIWLLLLTFSSAIHSPVQGESLVCKNALQDLSFLEHLLQVKYAPKTWKEQYLGWDLVQSSVSAQQKLRTQENPSTSFCQQVLADFIGGLNDFHAGVTFFAIESAYLPYTVQKSSDGRFYFVDIMTFSSEIRVGDELLEVDGAPVQDVLATLYGSNHKGTAAEESAALRTLFSRMASLGHKVPSGRTTLKIRRPFGTTREVRVKWRYVPEGVGDLATIAPSIRAPQLQKSMRSFFPKKDDAFHRSSSLFYSPMVPHFWAELRNHYATSGLKSGYNIGSTDGFLPVIGPVIWESEGLFRAYISSVTDGDGKSHKVGFLRIPTYSWQDMEDFDPSGPPPWEEFAKIIQVFSSNTEALIIDQTNNPGGSVLYLYALLSMLTDRPLELPKHRMILTQDEVVDALDWLTLLENVDTNVESRLALGDNMEGYTVDLQVAEYLKSFGRQVLNCWSKGDIELSTPIPLFGFEKIHPHPRVQYSKPICVLINEQDFSCADFFPVVLKDNDRALIVGTRTAGAGGFVFNVQFPNRTGIKTCSLTGSLAVREHGAFIENIGVEPHIDLPFTANDIRYKGYSEYLDKVKKLVCQLINNDGTIILAEDGSF
modifications: left off: small tags and cut ends
notes: chlamydial protease detected during an infection but not in purified EB
With B2 the “p65 cleavage after expression in 293T cells” value (p65) was “did not exhibit p65 cleavage activity”.

B3: p40: N-terminal p40 cleavage product of p65/RelA, amino acid residues 1-351 of SEQ ID NO:1 (protein, listed as Homo Sapiens)
chain: MDELFPLIFPAEPAQASGPYVEIIEQPKQRGMRFRYKCEGRSAGSIPGERSTDTTKTHPTIKINGYTGPGTVRISLVTKDPPHRPHPHELVGKDCRDGFYEAELCPDRCIHSFQNLGIQCVKKRDLEQAISQRIQTNNNPFQVPIEEQRGDYDLNAVRLCFQVTVRDPSGRPLRLPPVLPHPIFDNRAPNTAELKICRVNRNSGSCLGGDEIFLLCDKVQKEDIEVYFTGPGWEARGSFSQADVHRQVAIVFRTPPYADPSLQAPVRVSMQLRRPSDRELSEPMEFQYLPDTDDRHRIEEKRKRTYETFKSIMKKSPFSGPTDPRPPPRRIAVPSRSSASVPKPAPQPYPF
modifications: Myc tag
In the case of B3, the “TNFα-induced luciferase activity (NF-κB activation)” value (NF-κB [3]) is reported as “inhibited luciferase expression; also recorded: inhibited NF-κB activity”.
